IC50 data for 4 molecules are collected here from US10913745B2, “Octahydro-pyrrolo[3,4-c]-pyrrole derivatives and analogs thereof as autotaxin inhibitors” (Hoffmann-La Roche Inc., priority 2013, dated 2021).

The assay deals with ATX (human His-tagged) (Homo sapiens (Human), UniProt Q13822). The experiment in a line: Human ATX enzyme inhibition assay (fluorescence quenching, MR121 substrate). To be noted: MR121 substrate 1 μM, ATX 30 nM final, 30° C. The assay is classed as biochemical. Here is the method:
Human ATX Enzyme Inhibition Assay
ATX inhibition was measured by a fluorescence quenching assay using a specifically labeled substrate analogue (MR121 substrate). To obtain this MR121 substrate, BOC and TBS protected 6-amino-hexanoic acid (R)-3-({2-[3-(2-{2-[2-(2-amino-ethoxy)-ethoxy]-ethoxy}-ethoxy)-propionylamino]-ethoxy}-hydroxy-phosphoryloxy)-2-hydroxy-propyl ester (Ferguson et al., Org Lett 2006, 8 (10), 2023) was labeled with MR121 fluorophore (CAS 185308-24-1, 1-(3-carboxypropyl)-11-ethyl-1,2,3,4,8,9,10,11-octahydro-dipyrido[3,2-b:2′,3′-i]phenoxazin-13-ium) on the free amine of the ethanolamine side and then, after deprotection, subsequently with tryptophan on the side of the aminohexanoic acid. Assay working solutions were made as follows: Assay buffer (50 mM Tris-HCl, 140 mM NaCl, 5 mM KCl, 1 mM CaCl2, 1 mM MgCl2, 0.01% Triton-X-100, pH 8.0; ATX solution: ATX (human His-tagged) stock solution (1.08 mg/mL in 20 mM bicine, pH 8.5, 0.15 M NaCl, 10% glycerol, 0.3% CHAPS, 0.02% NaN3), diluted to 1.4-2.5× final concentration in assay buffer; MR121 substrate solution: MR121 substrate stock solution (800 μM MR121 substrate in DMSO), diluted to 2-5× final concentration in assay buffer. Test compounds (10 mM stock in DMSO, 8 μL) were obtained in 384 well sample plates (Corning Costar #3655) and diluted with 8 μL DMSO. Row-wise serial dilutions were made by transferring 8 μL cpd solution to the next row up to row O. The compound and control solutions were mixed five times and 2 μL were transferred to 384 well assay plates (Corning Costar #3702). Then, 15 μL of 41.7 nM ATX solution was added (30 nM final concentration), mixed five times and then incubated for 15 minutes at 30° C. 10 μL of MR121 substrate solution was added (1 μM final concentration), mixed 30 times and then incubated for 15 minutes at 30° C.
For `NS(=O)(=O)c1ccc(C(=O)N2C[C@H]3CN(C(=O)c4ccc(-c5ccc(Cl)cc5)cc4)C[C@H]3C2)cc1` [Example 8.06, 4-[(3 aS,6aR)-5-(4′-chloro-biphenyl-4-carbonyl)-hexahydro-pyrrolo[3,4-c]pyrrole-2-carbonyl]-benzenesulfonamide], 3 nM corresponded to half-maximal inhibition (IC50).
In the case of `NS(=O)(=O)c1ccc(C(=O)N2C[C@H]3CN(C(=O)CCc4ccc(OC(F)(F)F)cc4F)C[C@H]3C2)cc1` [Example 8.07, 4-{(3aS,6aR)-5-[3-(2-fluoro-4-trifluoromethoxy-phenyl)-propionyl]-hexahydro-pyrrolo[3,4-c]pyrrole-2-carbonyl}-benzenesulfonamide], the IC50 (in general, the concentration that inhibits the measured activity by half) was determined as 1 nM.
On to `NS(=O)(=O)c1ccc(C(=O)N2C[C@H]3CN(C(=O)CCc4ccc(OC(F)(F)F)cc4)C[C@H]3C2)cc1` [Example 8.08, 4-{(3aS,6aR)-5-[3-(4-trifluoromethoxy-phenyl)-propionyl]-hexahydro-pyrrolo[3,4-c]pyrrole-2-carbonyl}-benzenesulfonamide], for which it took 1.5 nM to reach half-maximal inhibition (IC50).
Take `NS(=O)(=O)c1ccc(C(=O)N2C[C@H]3CN(C(=O)CCc4ccc(OC(F)(F)F)cc4F)C[C@@H]3C2)cc1` [Example 8.09, 4-((3 aR,6aR)-5-(3-(2-fluoro-4-(trifluoromethoxy)phenyl)propanoyl)octahydropyrrolo[3,4-c]pyrrole-2-carbonyl)benzenesulfonamide]: 1 nM corresponded to half-maximal inhibition (IC50).
